Reference: paper PMC12066977, “Alkyl Tail Variation on Chalcone‐Based Quaternary Pyridinium Salts as Rule‐of‐Thumb for Antimicrobial Activity” (Archiv Der Pharmazie, 2025)

System: E. coli
Assay: Colistin association assay
Format: cell-based, Escherichia coli
Settings: colistin at sub-inhibitory concentration (MIC/8 = 0.027 µM), versus compound alone
Procedure: This is a confirmation of the ability of these new QPySs to also affect Gram‐negative proliferation once they pass through the OM.
The dry powder of the chalcone‐based QPySs was resuspended in dimethylsulfoxide (DMSO) at 20 mM and used as stock solutions. For biological investigations, compounds were used in the range 100–0.78 µM, and the solvent in the corresponding percentage range. The following commercially available antimicrobials and toxic clinical drugs were purchased from Sigma‐Aldrich (St. Louis, MO, USA), dissolved in water, and used as reference controls. Gentamicin and ampicillin were used in the range 107.69–0.82 µM and 143.23–1.12 µM, respectively; the colistin was used at 0.03 µM in association with the chalcone‐based QASs with E. coli. The fluconazole was used in the assays with C. albicans in the range 3.27–0.03 µM. […]
In short, microbial inocula were prepared at 0.5 McFarland in PBS and, subsequently, bacterial suspensions were diluted 1:200 in Mueller–Hinton broth (Sigma‐Aldrich, St. Louis, MO, USA), while fungal inoculum was diluted 1:20 in RPMI‐1640 medium (Gibco®, ThermoFisher Scientific Inc., Waltham, MA, USA), containing glucose 2%, 0.3% levo‐glutamine buffered to pH 7.0 with 0.165 M 3‐(N‐morpholino) propanesulfonic acid (MOPS). […] The plate was incubated at 37°C for 24 h, and subsequently the optical density at 630 nm (OD630nm) was spectrophotometrically measured. […]

C#CCOc1ccc(C(=O)/C=C/c2ccc[n+](CCCCCCCCCCCCCC)c2)c(OCC#C)c1.[Br-] [Compound 6, (E)‐3‐{3‐[2,4‐Bis(prop‐2‐yn‐1‐yloxy)phenyl]‐3‐oxoprop‐1‐en‐1‐yl}‐1‐tetradecylpyridin‐1‐ium bromide]
MIC decrease for E. coli in association with colistin: fourfold
